Measurements published in US20020086027A1, “Composition and method for enhancing immunological memory response” (priority 1998, published 2002).
“Also recorded” adds a separate entry of the source.

How the values were obtained:
[1] = system: mercuric chloride-induced arthritis; conditions: rats; cited from earlier work
[2] = system: human T cells; test: Cytokines in culture (IL-2 in supernatants, IFN-γ during recall); format: cell-based
From the text: Such possibilities make it plausible that signal-transduction pathways can be identified that differentially affect the commitment of responding T cells to the effector vs the memory pathways. […] It was of interest to look at the role of IL-2 in these events. […] Yet, the recall responses of cells primed under cover of […] are far higher than those of cells primed without […]). In fact, if […] is used in a situation in which T cell proliferation is abrogated by Aph it still enhances the response capability of primed T cells (FIG. 9). […] The enhancement in the magnitude of the secondary response caused by the presence of […] during priming is not simply the result of altered kinetics or response either (FIG. 11), but an actual increase. Clearly […] affects T cell priming such that commitment to memory is enhanced at the cost of effector responses, independent of its on T cell proliferation. […] (data not shown).

[3] = system: allo-specific precursor T cells; test: Limiting dilution analysis of clonal responder frequency and burst size; format: cell-based, human
From the text: Limiting dilution analyses were used to calculate the number of transplantation antigen-specific memory T cells in cultures primed in the presence or absence of POX. Multiple replicate wells of titrated numbers of primed responders were restimulated. the numbers of wells showing proliferative responses at each responder dose were used to calculate the frequency of responding memory t cells in the primed populations. estimates of the extent of proliferation in wells effectively containing single responder cells served as a measure of clonal burst size. […] To determine the frequence of all-specific precursor cells in the various responder populations, titrating numbers (from 10,000 to 200 per well) of variously primed cells were added to a constant number (1×10^5 per well) of g-irradiated stimulator PBMCs. Of the 48 wells plated per responder dose, those wells showing a response at least twice that of the background value were scored positive. The responder frequency was calculated by taking the number of negative wells into account. The response was considered clonal at the responder cell number where the proportion of positively responding wells was less than 37%. At responder cell concentrations showing clonal frequencies, the average cpm values of responding (versus non-responding) wells were used as an estimate of the average clonal burst size of single responding T cells.

[4] = system: CD25+ primed T cells; test: Propidium iodide staining for apoptosis of CD25+ primed T cells; format: cell-based, human; conditions: over the 48 hour rest period after priming with drug
Protocol: For analysis of cell surface markers, primed cell populations separated on Ficoll-Paque gradients were used. […] Briefly, 1-3×10^5 cells per well were stained with primary antibodies at 4° C., followed by appropriately labeled secondary reagents if required. Samples were analyzed using a Bryte flow cytometer (bio-Rad, Hemel Hampstead, UK). Antibodies to the T cell markers CD3 (OKT3), CD4 (OKT4), and to the activation markers CD25 and Fas (CD95) were used for staining. To detect apoptosis using propidium iodide (PI, Sigma Chemical Co.), antibody-stained cells were fixed and permeabilized with 70% ethanol, washed, and PI […] added just before cytometric analysis. Data were analyzed using FlowJo software (Treestar, San Jose, Calif.).
The differences between the kinetics of CD25 expression over two days of rest culture prompted the question of whether this was linked to effects of POX on the survival of T cells activated during priming. Almost all CD25^+ cells generated during priming were CD4 T cells (FIG. 17A). therefore, responder populations primed variously were stained in a two-color flow cytometric analysis for CD25 and Fas, since Fas engagement is involved in activation induced T cell death. The frequency and level of Fas expression in the CD25^+ population was unchanged in the presence (FIG. 20, panels B and D) or absence (panels A and C) of POX during priming. […]

[5] = system: T cell lines; test: Intracellular cAMP levels in T cell lines; format: cell-based; conditions: preliminary experiments
From the text: Several effects of POX on T cell signaling pathways have been reported. […] A major consequence of inhibition of phosphodiesterase is an increase in the levels of intracellular cAMP. […] This raises the possibility that although dbcAMP mimics POX in its effects on T cell priming, the precise molecular pathways involved may differ.

[6] = system: human T cells; test: Secondary (recall) alloproliferative response of T cells primed in vitro; format: cell-based; conditions: for memory/recall proliferative response: primed with allo-PBMCs in presence of 100 ug/ml drug, restimulated without drug
Protocol: In this system, we have used responses to first exposure as an indication of primary responses. When cells stimulated in this fashion are rested in culture and then restimulated with the same stimulator PBMCs, the 'recall' response measured are taken as an indication of immune memory. Proliferation is measured by the incorporation of radioactive tritiated thymidine in dividing cells. For priming, responder and stimulator cells mixed in 2-5 ml cultures in a ratio of 1:1-3:1. After five days of incubation, the cells were harvested, counted and viable cells used as primed responders with g-irradiated allostimulators in secondary alloproliferation assays, which were pulsed with (H^3)-thymidine after four days for estimating cell proliferation. For flow cytometric analysis, cells were separated from debris by Ficoll-Paque gradient centrifugation before staining. […] Sigma Chemical Co.) at room temperature for 20 minutes, washed extensively and used. For priming in vitro, responder PBMCs were incubated for 72 or 144 h at a ratio of either 1:1 or 2:1 respectively, with stimulator PBMCs. Where appropriate, CsA. Aph. and/or […] were added at the concentrations indicated, of PFA-fixed PBMCs were used instead.

SMILES: CC(=O)CCCCn1c(=O)c2c(ncn2C)n(C)c1=O [POX, pentoxifylline]
- protection against arthritis [1]: significant protection
- IL-2 in culture supernatants ([2]; Trental 100 μg/ml treated cultures): do not find detectable levels
- levels of IFN-γ produced during recall ([2]; primed in presence vs absence of Trental): not different
- frequency of alloreactive responder (memory) T cells ([3]; drug present during priming (POX 100 ug/ml)): enhanced; also recorded: significantly enhances
- clonal burst size (average clonal proliferative response) ([3]; drug-treated vs untreated during priming): without altering; also recorded: not significantly different
- proportion of apoptotic cells in the CD25+ population [4]: does not increase significantly
- intracellular cAMP levels [5]: does not increase
- subsequent alloproliferative response of unprimed cells incubated with drug alone ([6]; 100 μg/ml, no stimulators during incubation): does not enhance
- enhancing effect on the recall response ([6]; lower doses of Trental during priming): decreases
- secondary response to unfixed PBMCs ([6]; primed with PF-fixed PBMCs in presence of POX 100 ug/ml): enhanced
- recall response ([6]; primed with Trental plus Aph vs Aph alone): still higher
- memory/recall proliferative response [6]: much improved
- memory/recall proliferative response ([6]; listed as Trental): enhanced
